In EP4696306A1, “ADENOSINE TRIPHOSPHATE SECRETION INHIBITOR, HEPATIC STELLATE CELL ACTIVATION INHIBITOR, HEPATIC STELLATE CELL DEACTIVATOR, HEPATIC FIBROSIS THERAPEUTIC AGENT, NON-ALCOHOLIC STEATOHEPATITIS THERAPEUTIC AGENT, PSORIASIS THERAPEUTIC AGENT, AND USE OF COMPOUND FOR PRODUCING ADENOSINE TRIPHOSPHATE …” (KURUME UNIVERSITY, priority 2023, dated 2024):

How the values were obtained:
[1] = system: ATP transport activity in isolated chromaffin granule membranes; assay: ATP transport (3H-ATP uptake) in chromaffin granule membrane vesicles; assay type: biochemical, bovine; details: for IC50: PEP analogs; for inhibitory activity on ATP transport: concentration not given
Protocol: (§1) Chromaffin granule membranes were prepared from adrenal glands collected from slaughtered cattle according to Reference A (Nathan Nelson et al., 1988, Chromaffin Granule Proton Pump, Methods in Enzymology, 157, 619-633). Chromaffin granule membranes prepared by sucrose density gradient centrifugation were suspended in 2 ml of SME buffer (20 mM MOPS-tris (pH 7.0), 0.3 M sucrose, 5 mM EDTA, 10 µg/ml leupeptin, and 10 µg/ml pepstatin) + 25% glycerol, and the resulting suspension was aliquoted and stored at -80°C. Under these conditions, the ATP transport activity, the V-ATPase activity, and the catecholamine transport activity remain fully active for at least one year.
An ATP transport inhibition experiment for the chromaffin granule membrane was carried out according to Reference B (Yoshinori Moriyama et al., 2022, Is the vesicular nucleotide transporter a molecular target of eicosapentaenoic acid?, Frontiers in Pharmacology, 103389). About 20 µg of chromaffin granule membranes were added to 0.5 ml of measurement buffer (20 mM MOPS-tris (pH 7.0), 0.3 M sucrose, 5 mM potassium chloride, 5 mM magnesium acetate, 5 mM creatine phosphate, 10 units of creatine kinase, and 1 mM ^3[H]-ATP [15 KBq/assay]), followed by incubation at 30°C for 1 hour. Through a Millipore MCE membrane filter with a pore size 0.45 µm, 0.2 ml of the reaction liquid was filtered by suction. Thereafter, the filter was washed with 10 ml of 20 mM MOPS-tris (pH 7.0), 0.3 M sucrose, 5 mM potassium chloride, and 5 mM magnesium acetate, and dissolved in 10 ml of Clear-sol II (manufactured by Nacalai Tesque, Inc.). The radioactivity was then measured using a liquid scintillation counter (N = 3).
The reaction was initiated by adding 50 mM ^3[H]-ATP to a final concentration of 1 mM. The 50 mM ^3[H]-ATP was prepared by mixing an ATP-tris solution (manufactured by Sigma-Aldrich) with [2,8-^3H] adenosine triphosphate tetrasodium salt (26.0 Ci/mmol) (manufactured by New England Nuclear). PEP was used as a test reagent, and pyruvic acid was used as a negative control. Five minutes before the addition of ATP, PEP or pyruvic acid, as a solution in 20 mM MOPS-tris (pH 7.0), 0.3 M sucrose, 5 mM potassium chloride, and 5 mM magnesium acetate, was added to the measurement liquid to a final PEP concentration of 0.02, 0.05, 0.1, 0.2, 0.4, or 1 mM, or to a final pyruvic acid concentration of 0.5 or 1 mM.
(§2) Chromaffin granule membrane vesicles were prepared in the same manner as in Example 5, and uptake of radiolabeled ATP into the vesicles was measured. Transport activity of catecholamine (dopamine) and ATP-dependent proton transport by V-ATPase were also measured in the same manner as in Example 5.

human VNUT = molecular target: T1, human VNUT (Homo sapiens, UniProt Q9BYT1); assay: ATP loading into reconstituted liposomes containing human VNUT; assay type: biochemical; details: pyruvic acid at a 50-fold higher concentration (5 mM)
T1 construct: made in house; host or cells: HIGH FIVE insect cells (baculovirus)
T1 sequence (Q9BYT1 1-430 isoform Q9BYT1-2): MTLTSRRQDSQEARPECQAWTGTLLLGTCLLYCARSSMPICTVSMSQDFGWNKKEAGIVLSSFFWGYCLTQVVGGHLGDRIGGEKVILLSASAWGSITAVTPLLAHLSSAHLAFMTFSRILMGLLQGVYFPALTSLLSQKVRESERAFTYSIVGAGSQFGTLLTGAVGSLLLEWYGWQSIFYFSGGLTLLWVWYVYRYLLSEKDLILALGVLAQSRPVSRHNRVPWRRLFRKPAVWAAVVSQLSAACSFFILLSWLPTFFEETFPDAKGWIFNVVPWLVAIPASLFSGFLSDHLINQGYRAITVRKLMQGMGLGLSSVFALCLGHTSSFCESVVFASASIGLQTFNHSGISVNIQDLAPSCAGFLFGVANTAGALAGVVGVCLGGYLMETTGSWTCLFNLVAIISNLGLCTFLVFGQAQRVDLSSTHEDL
Protocol: Human VNUT was prepared according to Reference C (Keisuke Sawada et al., 2008, Identification of a vesicular nucleotide transporter, Proc Natl Acad Sci USA, vol. 105, no. 15, 5683-5686). Insect cells (HIGH FIVE cells) were infected at MOI = 1 with a baculovirus in which a human VNUT expression system was incorporated. HIGH FIVE cells expressing VNUT (1 × 10^8 cells) were collected with a cell scraper, and suspended at about 8 mg/ml in 20 mM Tris-HCl (pH 8.0), 0.1 M potassium acetate, 10% glycerol, 10 µg/ml pepstatin A, and 10 µg/ml leupeptin, followed by homogenization of the cells using an ultrasonic generator (manufactured by Sonics Materials). […]
VNUT (protein, 20 µg) prepared by the above method was mixed with liposomes (lipid weight, 200 µg), and left to stand at -80°C for 30 minutes. […] A major band was detected at a position of about 68 kDa. The proteins after the electrophoresis with the ePAGEL E-T520 2-10% gradient gel (manufactured by Atto) were electrotransferred to a nitrocellulose sheet, and analyzed by Western blotting using an anti-human SLC17A9 (VNUT) rabbit polyclonal antibody (manufactured by Proteintech).
The ATP transport activity of the VNUT-containing reconstituted liposomes prepared by the above method was measured. […]

catecholamine transport = assay: Catecholamine (3H-dopamine) transport in chromaffin granule membranes; assay type: biochemical, bovine; details: 1 µM reserpine
Protocol: as §1
A catecholamine transport inhibition experiment was carried out in the same manner as the ATP transport experiment except that the experiment used a measurement liquid containing 20 mM MOPS-tris (pH 7.0), 0.1 M sucrose, 0.1 M potassium chloride, 5 mM magnesium acetate, and about 5 µg of chromaffin granule membranes. To 0.5 ml of the measurement liquid, 2 mM ATP was added, and the resulting mixture was incubated at 30°C for about 5 minutes, followed by addition of^3 [H]-dopamine thereto to a final concentration of 10 µM. After further incubation at 30°C for 15 minutes, 0.2 ml of the reaction liquid was subjected to suction filtration through a Millipore MCE membrane filter with a pore size of 0.45 µm, and the radioactivity on the filter was measured (N = 3). The substrate, ^3[H]-dopamine, was prepared by mixing 3,4-[RING-2,5,6-^3H]dihydroxyphenylethylamine (dopamine) (30 Ci/mmol) (manufactured by New England Nuclear) with dopamine hydrochloride (manufactured by LKT Laboratories) such that a final concentration of 0.1 mM was achieved during the use.
as §2

| SMILES | inhibitory activity on ATP transport [1] | further results |
| --- | --- | --- |
| O=C(O)C(O)COP(=O)(O)O (stereo not drawn) [3-phosphoglyceric acid] |  | IC50 [1]: 450 µM |
| O=C(O)[C@@H](CO)OP(=O)(O)O [D-2-phosphoglyceric acid] |  | IC50 [1]: 180 µM |
| O=C(O)[C@H](CO)OP(=O)(O)O [L-2-phosphoglyceric acid] |  | IC50 [1]: 180 µM |
| C[C@H](O)C(=O)O [L-lactic acid] | no inhibitory activity |  |
| NC(=O)c1ccc[n+]([C@@H]2O[C@H](COP(=O)([O-])OP(=O)(O)OC[C@H]3O[C@@H](n4cnc5c(N)ncnc54)[C@H](O)[C@@H]3O)[C@@H](O)[C@H]2O)c1 [NAD+] | no inhibitory activity |  |
| CC(=O)SCCNC(=O)CCNC(=O)[C@H](O)C(C)(C)COP(=O)(O)OP(=O)(O)OC[C@H]1O[C@@H](n2cnc3c(N)ncnc32)[C@H](O)[C@@H]1OP(=O)(O)O [acetyl-CoA] | no inhibitory activity |  |
| O=C(O)CC(O)(CC(=O)O)C(=O)O [citric acid] | no inhibitory activity |  |
| O=C(CO)[C@@H](O)[C@H](O)[C@H](O)COP(=O)(O)O [fructose-6-phosphate] | no inhibitory activity |  |
| O=C[C@H](O)[C@@H](O)[C@H](O)[C@H](O)COP(=O)(O)O [glucose-6-phosphate] | no inhibitory activity |  |
| O=C(O)CC(O)C(=O)O (stereo not drawn) [malic acid] | no inhibitory activity |  |
| O=C(O)CC(=O)C(=O)O [oxaloacetic acid] | no inhibitory activity |  |
| CC(=O)C(=O)O [pyruvic acid] | no inhibitory activity | inhibition of ATP transport ([1]; concentrations of up to 1 mM): did not inhibit ATP transport; ATP loading into liposomes (human VNUT): did not inhibit ATP loading into liposomes |
| COC(=O)[C@H]1[C@H]2C[C@@H]3c4[nH]c5cc(OC)ccc5c4CCN3C[C@H]2C[C@@H](OC(=O)c2cc(OC)c(OC)c(OC)c2)[C@@H]1OC [reserpine] |  | ATP-dependent dopamine transport (catecholamine transport): almost completely blocked |
